Test results published in patent US7297505B2, “Use of MDCK cell line to predict corneal penetration of drugs” (Alcon, Inc., priority 2004, dated 2007).

Experiments:
[1] = Ex vivo corneal penetration (perfusion chamber); assay type: in vitro ADME; conditions: rabbit; Table 2; read-out: Ex vivo Rabbit Corneal Permeability, Papp nm/s
Method: The intact eyes, along with the lids and conjunctival sacs were then enucleated and immediately stored in about 70 ml of fresh BSS PLUS® Sterile Irrigating Solution (Alcon Laboratories, Inc.) saturated with O2/CO2 (95:5). Within one hour, corneas were mounted in the modified perfusion chamber as described by Schoenwald and Huang (G1). BSS PLUS® solution was used as the receiving and rinsing solution throughout the perfusion experiments. Steady-state conditions were used in order to determine the apparent permeability coefficients. After mounting the corneas in the chamber, 7.5 mls of BSS PLUS® solution was added to the receiving chamber (endothelial side of the cornea). Then, 7 mls of 0.1 mMole solutions of each fluoroquinolone prepared in BSS PLUS® solution was added into the donor chamber (epithelial side of the cornea). Throughout the experiment, both solutions were bubbled continuously with O2/CO2 (95:5) at the rate of about one bubble per second. This provides mixing of the solution in each chamber, oxygenation of the cornea, and pH control. Samples (0.15 ml) were withdrawn from the receiving chamber at 30 min intervals over a period of five hours. BSS PLUS® solution (0.15 ml) was added back to the receiving chamber after each withdrawal to compensate for loss of volume.
At the end of each permeability experiment, The final volume of the receiving chambers was noted, and the viability of the corneas was assessed by determining their hydration level: The corneas were trimmed of excess scleral tissue and conjunctiva, blotted, weighed, dried overnight at room temperature under vacuum over phosphorus pentoxide, and then re-weighed.
C is the steady state measured concentration of […] in the donor solution in units of μg/ml or ppm; and 60 is the conversion of minutes to seconds.

[2] = system: cornea; assay: Predicted corneal permeability from MDCK permeability by statistical model; conditions: Corneal Permeability=5.41(MDCK Permeability)−0.01(MDCK Permeability)^2; in nm/s
Description: The method of the present invention comprises the following steps: (1) determining the MDCK permeation value for a drug molecule; and (2) entering said value in a suitable linear or quadratic statistical model to calculate a predicted corneal permeability value for said molecule. The statistical model is created by obtaining MDCK permeation values and corneal penetration values for at least two representative drug molecules, plotting those values on a graph and deriving a linear or quadratic statistical model from the graph.

[3] = system: MDCK(MDR) monolayers; assay: in vitro; conditions: MDCK-MDR1
Description: (§1) The present invention is directed to the use of a new in vitro model for evaluating the ability of a drug molecule to penetrate the cornea. The model involves the use of MDCK cell permeability values to predict the ability of drug molecules to penetrate the cornea. The MDCK permeability values of drug molecules can be determined by means of known methods, such as the methods described in the following scientific articles: • 1. Horio, M, Pastan, I, Gottesman, M M, and Handler, J S. Transepithelial transport of vinblastine by kidney-derived cell lines. Application of a new kinetic model to estimate in situ Km of the pump. […] Pan, B F, Dutt, A, and Nelson, J A. Enhanced transepithelial flux of cimetidine by Madin-Darby canine kidney cells overexpressing human P-glycoprotein. […] The entire contents of the above-cited references relating to methods for determining MDCK permeation values for drug molecules are hereby incorporated in the present specification by reference. […] Various commercial scientific laboratories may be utilized to obtain MDCK permeation values (e.g., Absorption Systems, Exton, Pa., USA).
(§2) In vitro MDCK cell permeability. Permeability and transport studies were conducted and the data were analyzed at Absorption Systems, Exton, Pa., using methods previously described.^12,13 MDCK(MDR) monolayers were grown to confluence on collagen-coated, microporous, polycarbonate membranes in 12-well Costar Transwell plates. To ensure monolayer integrity, the trans epithelial electrical resistance (TEER) was measured. […] The permeability assay buffer was Hank's Balanced Salt Solution containing 10 mM HEPES and 15 mM glucose at a pH of 7.0-7.2. Permeability through a cell-free (blank) membrane was studied to determine non-specific binding and free diffusion of the test article through the device. […] At each time point, 1 and 2 hours, a 200-μL aliquot was taken from the receiver chamber and replaced with fresh assay buffer. Cells were dosed on the apical side [apical-to-basolateral, absorptive transport, […]] or basolateral side [basolateral-to-apical, secretory transport, (B-A)] and incubated at 37° C. with 5% CO2 and 90% relative humidity. Each determination was performed in duplicate. Lucifer Yellow permeability was measured for each monolayer after the experiment, to ensure that the cell monolayer integrity and viability was not compromised by the test article.
(§3) To determine the transport of compounds in the absence of functional P-gp activity, the above experimental conditions were used but in the presence of the P-gp inhibitor cyclosporin A (CSA).^14 For the studies using CSA, cells were pre-incubated for 30 minutes with the inhibitor (10 μM) and washed; during the permeation determination period CSA (10 μM) was present on both sides of the membrane. The Papp A-B determined in the presence of CSA was taken as an estimate of the permeability attributed to passive diffusion for the compound (Papp PD).

[4] = system: P-gp (MDR1); assay: in vitro; conditions: dog, MDCK-MDR1
Description: as §1, §2, §3

Compound: Nc1cc(Cl)c(N=C2NCCN2)c(Cl)c1 [Apraclonidine]
- Papp at 5 h, 0.1 mMole [1]: 3.8 ×10⁻⁶ cm/s
- Predicted Corneal Permeability [2]: 19.58
- MDCK^2 [3]: 14.44
- Papp at 10 μM [4]: 0.38 ×10⁻⁶ cm/s

Compound: CC(C)NCC(O)COc1ccc(CCOCC2CC2)cc1 (stereo not drawn) [Betaxolol]
- Papp at 5 h, 0.1 mMole [1]: 60 ×10⁻⁶ cm/s
- Predicted Corneal Permeability [2]: 657.76
- MDCK^2 [3]: 40804
- Papp at 10 μM [4]: 20.2 ×10⁻⁶ cm/s

Compound: O=C1CC2(CCCC2)CC(=O)N1CCCCN1CCN(c2ncccn2)CC1 [Buspirone]
- Papp at 5 h, 0.1 mMole [1]: 66.5 ×10⁻⁶ cm/s
- Predicted Corneal Permeability [2]: 675.82
- MDCK^2 [3]: 105625
- Papp at 10 μM [4]: 32.5 ×10⁻⁶ cm/s

Compound: C[C@@H]1C[C@H]2[C@@H]3CCC4=CC(=O)C=C[C@]4(C)[C@@]3(F)[C@@H](O)C[C@]2(C)[C@@]1(O)C(=O)CO [Dexamethasone]
- MDCK^2 [3]: 1428.84

Compound: O=C1OC2(c3ccc(O)cc3Oc3cc(O)ccc32)c2ccccc21 [Fluorescein]
- Papp at 5 h, 0.1 mMole [1]: 16 ×10⁻⁶ cm/s
- Predicted Corneal Permeability [2]: 33.83
- MDCK^2 [3]: 43.56
- Papp at 10 μM [4]: 0.66 ×10⁻⁶ cm/s

Compound: NC(=O)Cc1cccc(C(=O)c2ccccc2)c1N [Nepafenac]
- Papp at 5 h, 0.1 mMole [1]: 74 ×10⁻⁶ cm/s
- Predicted Corneal Permeability [2]: 625.74
- MDCK^2 [3]: 32761
- Papp at 10 μM [4]: 18.1 ×10⁻⁶ cm/s

Compound: CC[C@@H]1C(=O)OC[C@@H]1Cc1cncn1C [Pilocarpine]
- Papp at 5 h, 0.1 mMole [1]: 9.8 ×10⁻⁶ cm/s
- Predicted Corneal Permeability [2]: 177.99
- MDCK^2 [3]: 1354.24
- Papp at 10 μM [4]: 3.68 ×10⁻⁶ cm/s

Compound: CC(C)(C)NC[C@H](O)COc1nsnc1N1CCOCC1 [Timolol]
- Papp at 5 h, 0.1 mMole [1]: 24 ×10⁻⁶ cm/s
- Predicted Corneal Permeability [2]: 164.91
- MDCK^2 [3]: 1149.21
- Papp at 10 μM [4]: 3.39 ×10⁻⁶ cm/s

Compound: Lucifer Yellow
- Post experiment Lucifer Yellow permeability in monolayers [3]: 0.24-0.75 ×10^−6 cm/s
